We go through five cell lines from the supplement of paper PMC10307832.

What all share (assay): relative viability (nuclei count vs DMSO), 5 days (fraction); higher = more cells survive
Compound in one experiment: COc1ncc(-c2ccc3nccc(-c4ccnnc4)c3c2)cc1NS(=O)(=O)c1ccc(F)cc1F [Omipalisib]
A digest of the protocol: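 Lung cancer cell lines were seeded into 1536-well plates, kept overnight at 37 °C and pinned with five library-drug doses (not always all listed) spaced by √10. After 5 days, nuclei were Hoechst-stained, imaged at 4× and counted with MetaXpress. Viability is treated-well nuclei over vehicle-well nuclei, taken as a median across plates. Plates needed control CV below 25% and at least one doubling.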

Compound in the experiment “Omipalisib + Trametinib”: COc1ncc(-c2ccc3nccc(-c4ccnnc4)c3c2)cc1NS(=O)(=O)c1ccc(F)cc1F [Omipalisib] + CC(=O)Nc1cccc(-n2c(=O)n(C3CC3)c(=O)c3c(Nc4ccc(I)cc4F)n(C)c(=O)c(C)c32)c1 [Trametinib] (partner 0.02 µM)
A digest of the protocol:
(§1)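 Relative viability divides the nuclei count in treated wells by that in vehicle wells. Lung cancer cell lines were seeded in 1536-well plates, dosed by pin tool the next day, and fixed and stained after 5 days in one step with final 0.05% Triton X-100, 1% formaldehyde and 1 ug/ml Hoechst. Dosing was a single drug or a fixed anchor-drug dose plus five library-drug doses (not always all listed) in √10 steps, and values are medians of duplicate plates imaged at 4×.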

Compound in the experiment “Omipalisib + Bortezomib”: COc1ncc(-c2ccc3nccc(-c4ccnnc4)c3c2)cc1NS(=O)(=O)c1ccc(F)cc1F [Omipalisib] + CC(C)C[C@H](NC(=O)[C@H](Cc1ccccc1)NC(=O)c1cnccn1)B(O)O [Bortezomib] (partner 0.002 µM)
A digest of the protocol:
as §1

Compound in the experiment “Omipalisib + Phenformin”: COc1ncc(-c2ccc3nccc(-c4ccnnc4)c3c2)cc1NS(=O)(=O)c1ccc(F)cc1F [Omipalisib] + N=C(N)NC(=N)NCCc1ccccc1 [Phenformin] (partner 250 µM)
A digest of the protocol: as §1

Compound in the experiment “Omipalisib + Decitabine”: COc1ncc(-c2ccc3nccc(-c4ccnnc4)c3c2)cc1NS(=O)(=O)c1ccc(F)cc1F [Omipalisib] + Nc1ncn([C@H]2C[C@H](O)[C@@H](CO)O2)c(=O)n1 [Decitabine] (partner 2 µM)
A digest of the protocol: as §1

Compound in the experiment “Omipalisib + Vorinostat”: COc1ncc(-c2ccc3nccc(-c4ccnnc4)c3c2)cc1NS(=O)(=O)c1ccc(F)cc1F [Omipalisib] + O=C(CCCCCCC(=O)Nc1ccccc1)NO [Vorinostat] (partner 1 µM)
A digest of the protocol: as §1

Consider SW 1573, for which the relative viability with Omipalisib (0.0003 µM) was determined as 0.731; with Omipalisib (0.003 µM), 0.713; with Omipalisib (0.03 µM) it was 0.492; with Omipalisib + Trametinib (first compound 0.0003 µM) it was 0.441; with Omipalisib + Trametinib (first compound 0.003 µM), 0.373; with Omipalisib + Trametinib (first compound 0.03 µM), 0.226. The relative viability was found to be 0.885 with Omipalisib + Bortezomib (first compound 0.0003 µM); 0.818 with Omipalisib + Bortezomib (first compound 0.003 µM); 0.411 with Omipalisib + Bortezomib (first compound 0.03 µM); 0.238 with Omipalisib + Phenformin (first compound 0.0003 µM); 0.227 with Omipalisib + Phenformin (first compound 0.003 µM); 0.169 with Omipalisib + Phenformin (first compound 0.03 µM). Moreover, the relative viability with Omipalisib + Decitabine (first compound 0.0003 µM) came to 0.306; in the experiment with Omipalisib + Decitabine (first compound 0.003 µM) it was 0.241; with Omipalisib + Decitabine (first compound 0.03 µM) it was 0.239; with Omipalisib + Vorinostat (first compound 0.0003 µM), 0.236; with Omipalisib + Vorinostat (first compound 0.003 µM) it was 0.456; with Omipalisib + Vorinostat (first compound 0.03 µM), 0.315.
NCI-H1395: the relative viability with Omipalisib (0.0003 µM) stood at 0.901; in the experiment with Omipalisib (0.003 µM), 0.706; with Omipalisib (0.03 µM), 0.649; in the experiment with Omipalisib + Trametinib (first compound 0.0003 µM) it was 1.05; with Omipalisib + Trametinib (first compound 0.003 µM) it was 0.83; with Omipalisib + Trametinib (first compound 0.03 µM), 0.615. Also, the relative viability in the experiment with Omipalisib + Phenformin (first compound 0.0003 µM) worked out at 0.414; with Omipalisib + Phenformin (first compound 0.003 µM), 0.403; with Omipalisib + Phenformin (first compound 0.03 µM), 0.393; with Omipalisib + Decitabine (first compound 0.0003 µM), 0.661; in the experiment with Omipalisib + Decitabine (first compound 0.003 µM), 0.625; with Omipalisib + Decitabine (first compound 0.03 µM), 0.567. For the same cell line, the figures for the relative viability in the experiment with Omipalisib + Vorinostat (first compound 0.0003 µM), with Omipalisib + Vorinostat (first compound 0.003 µM) and in the experiment with Omipalisib + Vorinostat (first compound 0.03 µM) were 0.716, 0.525 and 0.523, respectively.
Regarding BEN, the relative viability in the experiment with Omipalisib (0.0003 µM) is 0.789; with Omipalisib (0.003 µM), 0.577; with Omipalisib (0.03 µM), 0.712; with Omipalisib + Trametinib (first compound 0.0003 µM), 0.828; in the experiment with Omipalisib + Trametinib (first compound 0.003 µM), 0.671; with Omipalisib + Trametinib (first compound 0.03 µM), 0.602. Moreover, the relative viability with Omipalisib + Bortezomib (first compound 0.0003 µM) was 0.773; in the experiment with Omipalisib + Bortezomib (first compound 0.003 µM) it was 0.527; with Omipalisib + Bortezomib (first compound 0.03 µM), 0.46; with Omipalisib + Phenformin (first compound 0.0003 µM) it was 0.259; with Omipalisib + Phenformin (first compound 0.003 µM), 0.277; with Omipalisib + Phenformin (first compound 0.03 µM), 0.27. The relative viability with Omipalisib + Decitabine (first compound 0.0003 µM) worked out at 0.695; in the experiment with Omipalisib + Decitabine (first compound 0.003 µM), 0.612; with Omipalisib + Decitabine (first compound 0.03 µM), 0.606; with Omipalisib + Vorinostat (first compound 0.0003 µM), 0.502; in the experiment with Omipalisib + Vorinostat (first compound 0.003 µM), 0.498; with Omipalisib + Vorinostat (first compound 0.03 µM), 0.452.
As for SK-MES-1, the relative viability came to 0.927 in the experiment with Omipalisib (0.0003 µM); 0.607 in the experiment with Omipalisib (0.003 µM); 0.452 with Omipalisib (0.03 µM); 0.512 in the experiment with Omipalisib + Trametinib (first compound 0.0003 µM); 0.419 with Omipalisib + Trametinib (first compound 0.003 µM); 0.285 with Omipalisib + Trametinib (first compound 0.03 µM). In addition, the relative viability with Omipalisib + Phenformin (first compound 0.0003 µM) is 0.66; with Omipalisib + Phenformin (first compound 0.003 µM), 0.618; in the experiment with Omipalisib + Phenformin (first compound 0.03 µM), 0.428; with Omipalisib + Decitabine (first compound 0.0003 µM), 0.363; in the experiment with Omipalisib + Decitabine (first compound 0.003 µM) it was 0.262; in the experiment with Omipalisib + Decitabine (first compound 0.03 µM), 0.241. Moreover, the figures for the relative viability in the experiment with Omipalisib + Vorinostat (first compound 0.0003 µM), in the experiment with Omipalisib + Vorinostat (first compound 0.003 µM) and in the experiment with Omipalisib + Vorinostat (first compound 0.03 µM) were 1.02, 0.739 and 0.526, respectively.
Regarding NCI-H1755, the relative viability in the experiment with Omipalisib (0.0003 µM) amounted to 1.01; in the experiment with Omipalisib (0.003 µM) it was 0.901; with Omipalisib (0.03 µM), 0.737; with Omipalisib + Trametinib (first compound 0.0003 µM), 0.736; with Omipalisib + Trametinib (first compound 0.003 µM), 0.695; with Omipalisib + Trametinib (first compound 0.03 µM) it was 0.356. The relative viability in the experiment with Omipalisib + Bortezomib (first compound 0.0003 µM) was 0.924; with Omipalisib + Bortezomib (first compound 0.003 µM), 0.886; with Omipalisib + Bortezomib (first compound 0.03 µM), 0.708; in the experiment with Omipalisib + Phenformin (first compound 0.0003 µM), 0.625; in the experiment with Omipalisib + Phenformin (first compound 0.003 µM), 0.522; with Omipalisib + Phenformin (first compound 0.03 µM), 0.457. Also, the relative viability with Omipalisib + Decitabine (first compound 0.0003 µM) turned out to be 0.714; with Omipalisib + Decitabine (first compound 0.003 µM), 0.555; in the experiment with Omipalisib + Decitabine (first compound 0.03 µM), 0.485; with Omipalisib + Vorinostat (first compound 0.0003 µM), 0.747; with Omipalisib + Vorinostat (first compound 0.003 µM), 0.738; in the experiment with Omipalisib + Vorinostat (first compound 0.03 µM), 0.517.
